Tests used:
[1] = biological target: T1, Diacylglycerol O-acyltransferase 2 (Homo sapiens, UniProt Q96PD7); assay: Inhibition of human DGAT2 expressed in Sf9 insect cell membrane using [1-14C]decanoyl-CoA and 1,2-didecanoyl-sn-glycerol as substrates assessed as incorporation of [1-14C]decanoyl into triacylglycerol preincubated for 120 mins followed by substrate addition and measured after 40 mins by scintillation counting method; assay type: cell membranes
T1 sequence (Q96PD7 whole entry): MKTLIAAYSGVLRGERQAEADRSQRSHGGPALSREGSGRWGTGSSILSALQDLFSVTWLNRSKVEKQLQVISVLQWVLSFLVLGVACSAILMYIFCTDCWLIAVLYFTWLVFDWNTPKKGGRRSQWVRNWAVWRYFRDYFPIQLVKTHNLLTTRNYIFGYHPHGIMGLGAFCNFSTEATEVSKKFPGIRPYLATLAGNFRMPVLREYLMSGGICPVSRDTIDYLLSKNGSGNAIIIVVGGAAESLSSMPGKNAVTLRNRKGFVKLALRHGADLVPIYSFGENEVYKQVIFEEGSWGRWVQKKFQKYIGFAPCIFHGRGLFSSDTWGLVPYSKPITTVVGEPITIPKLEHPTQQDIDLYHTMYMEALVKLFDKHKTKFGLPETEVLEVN

[2] = Apparent permeability in MDCK-II cells; assay type: ADME, cell-based, Canis lupus familiaris; settings: dog
[3] = Apparent intrinsic clearance in cryopreserved human hepatocytes measured per million cells at 1 uM incubated for 4 hrs by LC-MS/MS analysis; assay type: ADME, cell-based, Hepatocyte; settings: for hepatocyte CLint at 1 µM: cryopreserved human hepatocytes, read-out: CLH
physchem = settings: buffer, pH 7.4
Description: Lipophilicity, logD of compound at pH 7.4 by shake flask method

[4] = Half life in human; assay type: ADME
[5] = Drug metabolism in cryopreserved human hepatocytes assessed as O-dearylation mediated oxidative metabolite formation at 10 uM measured for 240 mins by HPLC-UV-MS analysis; assay type: ADME, cell-based, Hepatocyte; settings: 4 h
Cytochrome P450 2C9 = Cytochrome P450 2C9 (Homo sapiens, UniProt P11712); assay: Reversible inhibition of CYP2C9 in pooled human liver microsomes using 4-Hydroxydiclofenac as substrate incubated for 10 mins in presence of NADPH by HPLC-MS/MS analysis; assay type: ADME, Microsome
Chain of Cytochrome P450 2C9 (P11712 whole entry): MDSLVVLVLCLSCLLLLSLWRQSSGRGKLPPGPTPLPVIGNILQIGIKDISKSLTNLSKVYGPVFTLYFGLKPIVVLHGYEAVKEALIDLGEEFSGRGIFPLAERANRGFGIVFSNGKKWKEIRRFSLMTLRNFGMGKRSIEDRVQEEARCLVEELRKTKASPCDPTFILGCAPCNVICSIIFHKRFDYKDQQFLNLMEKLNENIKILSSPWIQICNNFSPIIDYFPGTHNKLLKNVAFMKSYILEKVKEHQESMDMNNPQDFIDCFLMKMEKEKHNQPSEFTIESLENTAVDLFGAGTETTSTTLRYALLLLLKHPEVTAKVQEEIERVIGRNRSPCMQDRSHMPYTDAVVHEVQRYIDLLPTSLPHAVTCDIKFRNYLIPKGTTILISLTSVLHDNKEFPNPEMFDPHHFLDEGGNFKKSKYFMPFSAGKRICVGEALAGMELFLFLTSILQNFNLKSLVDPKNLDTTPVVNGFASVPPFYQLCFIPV

CYP3A4/5 = CYP3A4/5 (Homo sapiens, UniProt P08684+P20815); assay: Reversible inhibition of CYP3A4/5 in pooled human liver microsomes; assay type: ADME, Microsome
[6] = Drug metabolism in cryopreserved human hepatocytes assessed as oxidation of primary alcohol to carboxylic acid mediated metabolite formation at 10 uM measured for 240 mins by HPLC-UV-MS analysis; assay type: ADME, cell-based, Hepatocyte; settings: 4 h
[7] = Dissociation constant, pKa of compound; assay type: physicochemical
[8] = Apparent intrinsic clearance in human liver microsomes in presence of NADPH; assay type: ADME, Microsome; settings: read-out: CLH
Cytochrome P450 1A2 = biological target: T2, Cytochrome P450 1A2 (Homo sapiens, UniProt P05177); assay: Reversible inhibition of CYP1A2 in pooled human liver microsomes using […] as substrate incubated for 20 mins in presence of NADPH by HPLC-MS/MS analysis; assay type: ADME, Microsome
T2 sequence (P05177 whole entry): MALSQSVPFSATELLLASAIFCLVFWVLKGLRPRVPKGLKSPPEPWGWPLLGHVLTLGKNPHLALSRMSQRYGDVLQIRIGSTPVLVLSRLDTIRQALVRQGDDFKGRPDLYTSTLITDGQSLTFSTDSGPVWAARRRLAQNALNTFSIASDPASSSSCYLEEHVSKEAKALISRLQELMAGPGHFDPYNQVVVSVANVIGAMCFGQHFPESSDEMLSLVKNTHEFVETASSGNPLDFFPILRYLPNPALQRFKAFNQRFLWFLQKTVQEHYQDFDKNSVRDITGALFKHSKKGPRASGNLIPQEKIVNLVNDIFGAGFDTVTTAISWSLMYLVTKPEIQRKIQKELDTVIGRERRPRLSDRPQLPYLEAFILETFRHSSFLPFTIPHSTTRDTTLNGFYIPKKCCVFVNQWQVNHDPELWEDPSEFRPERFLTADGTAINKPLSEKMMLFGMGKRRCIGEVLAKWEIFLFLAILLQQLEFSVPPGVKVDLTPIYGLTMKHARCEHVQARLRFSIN

Cytochrome P450 2B6 = biological target: T3, Cytochrome P450 2B6 (Homo sapiens, UniProt P20813); assay: Reversible inhibition of CYP2B6 in pooled human liver microsomes; assay type: ADME, Microsome
T3 sequence (P20813 whole entry): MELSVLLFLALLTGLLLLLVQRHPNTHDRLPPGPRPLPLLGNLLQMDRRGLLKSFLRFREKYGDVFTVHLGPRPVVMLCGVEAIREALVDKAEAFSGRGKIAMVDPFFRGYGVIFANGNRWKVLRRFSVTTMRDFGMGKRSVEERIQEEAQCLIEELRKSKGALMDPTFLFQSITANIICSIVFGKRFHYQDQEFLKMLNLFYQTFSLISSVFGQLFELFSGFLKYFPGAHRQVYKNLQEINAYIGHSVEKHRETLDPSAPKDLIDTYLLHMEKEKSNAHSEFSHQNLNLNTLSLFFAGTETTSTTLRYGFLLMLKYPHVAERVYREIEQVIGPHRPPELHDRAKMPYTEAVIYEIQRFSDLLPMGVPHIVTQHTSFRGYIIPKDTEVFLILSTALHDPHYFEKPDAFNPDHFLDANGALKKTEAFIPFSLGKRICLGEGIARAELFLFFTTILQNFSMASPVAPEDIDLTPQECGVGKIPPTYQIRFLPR

[9] = Oral bioavailability in Wistar Han rat at 5 mg/kg; assay type: ADME, organism-based; settings: in vivo
[10] = Half life in Wistar Han rat; assay type: ADME; settings: in vivo
Cytochrome P450 2C8 = biological target: T4, Cytochrome P450 2C8 (Homo sapiens, UniProt P10632); assay: Reversible inhibition of CYP2C8 in pooled human liver microsomes using desethylamodiaquine as substrate incubated for 10 mins in presence of NADPH by HPLC-MS/MS analysis; assay type: ADME, Microsome
T4 sequence (P10632 whole entry): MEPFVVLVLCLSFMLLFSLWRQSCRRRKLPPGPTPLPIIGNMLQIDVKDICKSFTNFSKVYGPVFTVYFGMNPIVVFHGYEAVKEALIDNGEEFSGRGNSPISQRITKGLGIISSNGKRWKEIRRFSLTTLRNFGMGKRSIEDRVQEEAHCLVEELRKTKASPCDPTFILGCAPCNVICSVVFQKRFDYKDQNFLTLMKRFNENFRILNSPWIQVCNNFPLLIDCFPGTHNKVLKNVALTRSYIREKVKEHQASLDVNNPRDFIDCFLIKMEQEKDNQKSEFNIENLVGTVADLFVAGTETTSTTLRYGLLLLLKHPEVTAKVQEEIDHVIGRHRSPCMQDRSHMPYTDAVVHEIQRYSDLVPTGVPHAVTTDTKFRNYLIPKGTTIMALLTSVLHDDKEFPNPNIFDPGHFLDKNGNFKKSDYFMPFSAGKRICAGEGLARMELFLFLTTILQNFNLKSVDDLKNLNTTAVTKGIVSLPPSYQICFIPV

[11] = Drug metabolism in cryopreserved human hepatocytes assessed as O-deethylation mediated pyridin-3-ol metabolite formation at 10 uM measured for 240 mins by HPLC-UV-MS analysis; assay type: ADME, cell-based, Hepatocyte; settings: 4 h
[12] = Plasma clearance in Wistar Han rat; assay type: ADME
[13] = biological target: T5, Diacylglycerol O-acyltransferase 1 (Homo sapiens, UniProt O75907); assay: Inhibition of human DGAT1 using [1-14C]decanoyl-CoA and 1,2-didecanoyl-sn-glycerol as substrates assessed as incorporation of [1-14C]decanoyl […] preincubated for 30 mins followed by substrate addition and measured after 30 to 90 mins by scintillation counting method
T5 sequence (O75907 whole entry): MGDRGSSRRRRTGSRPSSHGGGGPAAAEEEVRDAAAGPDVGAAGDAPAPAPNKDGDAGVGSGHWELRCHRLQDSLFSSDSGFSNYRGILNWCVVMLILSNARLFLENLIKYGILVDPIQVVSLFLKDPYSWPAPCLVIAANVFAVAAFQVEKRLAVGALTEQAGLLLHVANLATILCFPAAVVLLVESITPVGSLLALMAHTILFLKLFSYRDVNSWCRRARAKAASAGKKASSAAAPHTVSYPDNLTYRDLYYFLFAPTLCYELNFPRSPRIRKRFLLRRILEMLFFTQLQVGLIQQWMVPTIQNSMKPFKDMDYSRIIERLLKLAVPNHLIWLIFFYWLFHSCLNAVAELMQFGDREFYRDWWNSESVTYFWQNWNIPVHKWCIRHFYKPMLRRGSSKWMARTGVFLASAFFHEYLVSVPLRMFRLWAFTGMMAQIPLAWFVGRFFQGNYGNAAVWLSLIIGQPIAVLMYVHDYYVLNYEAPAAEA

Cytochrome P450 2D6 = Cytochrome P450 2D6 (Homo sapiens, UniProt P10635); assay: Reversible inhibition of CYP2D6 in pooled human liver microsomes using dextrorphan as substrate incubated for 14 mins in presence of NADPH by HPLC-MS/MS analysis; assay type: ADME, Microsome
Chain of Cytochrome P450 2D6 (P10635 whole entry): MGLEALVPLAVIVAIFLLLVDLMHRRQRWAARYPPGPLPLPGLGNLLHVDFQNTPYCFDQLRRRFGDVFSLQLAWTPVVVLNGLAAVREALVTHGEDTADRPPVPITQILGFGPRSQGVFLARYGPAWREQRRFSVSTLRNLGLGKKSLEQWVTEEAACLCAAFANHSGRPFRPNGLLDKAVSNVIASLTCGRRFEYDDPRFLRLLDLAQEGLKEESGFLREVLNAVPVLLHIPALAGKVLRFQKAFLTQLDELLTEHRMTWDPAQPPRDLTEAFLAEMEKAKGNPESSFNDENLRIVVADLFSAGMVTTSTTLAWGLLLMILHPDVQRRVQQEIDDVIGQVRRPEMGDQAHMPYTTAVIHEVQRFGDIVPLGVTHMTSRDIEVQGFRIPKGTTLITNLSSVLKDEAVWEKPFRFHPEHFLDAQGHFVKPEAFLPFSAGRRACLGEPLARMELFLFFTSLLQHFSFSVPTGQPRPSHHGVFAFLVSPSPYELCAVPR

Cytochrome P450 2C19 = Cytochrome P450 2C19 (Homo sapiens, UniProt P33261); assay: Reversible inhibition of CYP2C19 in pooled human liver microsomes using 4-Hydroxymephenytoin as substrate incubated for 20 mins in presence of NADPH by HPLC-MS/MS analysis; assay type: ADME, Microsome
Chain of Cytochrome P450 2C19 (P33261 whole entry): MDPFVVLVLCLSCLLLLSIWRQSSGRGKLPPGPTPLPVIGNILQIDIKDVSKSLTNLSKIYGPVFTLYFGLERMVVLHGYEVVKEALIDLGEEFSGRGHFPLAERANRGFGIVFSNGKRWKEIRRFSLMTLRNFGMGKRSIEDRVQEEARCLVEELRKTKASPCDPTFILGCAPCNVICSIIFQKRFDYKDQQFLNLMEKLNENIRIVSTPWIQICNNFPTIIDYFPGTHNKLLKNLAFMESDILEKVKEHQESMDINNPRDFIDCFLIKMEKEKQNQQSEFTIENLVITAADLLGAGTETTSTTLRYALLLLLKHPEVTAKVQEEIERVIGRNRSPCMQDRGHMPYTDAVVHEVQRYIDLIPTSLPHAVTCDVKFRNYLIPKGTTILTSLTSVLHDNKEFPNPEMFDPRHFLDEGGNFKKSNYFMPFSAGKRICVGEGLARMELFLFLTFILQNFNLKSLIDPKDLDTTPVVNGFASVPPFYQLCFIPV

[14] = Volume of distribution at steady state in Wistar Han rat; assay type: ADME; settings: in vivo, read-out: Vdss
[15] = Lipophilicity, logD of compound; assay type: physicochemical; settings: octanol/water
[16] = Apparent intrinsic clearance in human hepatocytes measured per million cells; assay type: ADME, cell-based, Hepatocyte; settings: read-out: CLH
[17] = Apparent intrinsic clearance in human liver microsomes; assay type: ADME, Microsome; settings: read-out: CLH
[18] = Apparent permeability of compound; assay type: ADME; settings: not told

Row | IC50 [1] | Papp ([2]; MDCK, read-out: Papp) | hepatocyte CLint at 1 µM [3] | logD (physchem) | Compound | further results
1 | 84.6 nM | 15 ×10⁻⁶ cm/s | 7 µL/min/1e6 cells |  | CCNC(=O)c1cnc(-c2cncc(Oc3ncccc3OCC)c2)nc1 | 
2 |  | 4 ×10⁻⁶ cm/s | < 3 µL/min/1e6 cells | 1.6 | CCOc1cccnc1Oc1cncc(-c2ncc(C(=O)NC3(CO)CCOC3)cn2)c1 (stereo in doubt; 4) | 
3 | 353 nM | 20 ×10⁻⁶ cm/s | 7 µL/min/1e6 cells | 2.6 | CCOc1cccnc1Oc1cncc(-c2ncc(C(=O)NC3CCOCC3)cn2)c1 | 
4 | 31.8 nM |  |  | 1.8 | CCOc1cccnc1O[C@@H]1CCCN(c2ncc(C(=O)NC(C)(C)CO)cn2)C1 | microsomal CLint [8]: 108 µL/min/mg

Second part, the compound before the results:

Row | Compound | IC50 [1] | Papp ([2]; MDCK, read-out: Papp) | hepatocyte CLint at 1 µM [3] | logD (physchem) | further results
5 | CCOc1cccnc1Oc1cncc(-c2ncc(C(=O)N[C@@H]3CCOC3)cn2)c1 |  | 14 ×10⁻⁶ cm/s | 5 µL/min/1e6 cells | 1.9 | 
6 | CCOc1cccnc1Oc1cncc(-c2ncc(C(=O)NC(C)(C)CS(C)(=O)=O)cn2)c1 |  | 15 ×10⁻⁶ cm/s | 8 µL/min/1e6 cells | 1.9 | 
7 | CCOc1cccnc1Oc1cncc(-c2ncc(C(=O)NC(C)(C)CO)cn2)c1 | 6.6 nM | 21 ×10⁻⁶ cm/s | 8 µL/min/1e6 cells | 2 | half-life [4]: > 240 min; Drug metabolism [5]: Metabolite_Notdetected; IC50 (Cytochrome P450 2C9): 7800 nM; IC50 (CYP3A4/5): > 30000 nM; Drug metabolism [6]: Metabolite_Detected; pKa [7]: 2.5; microsomal CLint [8]: 14 µL/min/mg; IC50 (Cytochrome P450 1A2): > 30000 nM; IC50 (Cytochrome P450 2B6): > 24000 nM; bioavailability [9]: 29%; half-life [10]: 24 min; IC50 (Cytochrome P450 2C8): > 30000 nM; Drug metabolism [11]: Metabolite_Detected; clearance [12]: 57 mL/min/kg; IC50 [13]: > 50000 nM; IC50 (Cytochrome P450 2D6): > 30000 nM; IC50 (Cytochrome P450 2C19): > 30000 nM; Vd [14]: 1.2 L/kg
8 | CCOc1ccccc1O[C@@H]1CCCN(c2ncc(C(=O)NCc3cccc(C(=O)O)c3)cn2)C1 |  |  |  |  | logD [15]: 0.7; hepatocyte CLint [16]: < 12 µL/min/1e6 cells; microsomal CLint [17]: 9 µL/min/mg; Papp [18]: 2 ×10⁻⁶ cm/s
9 | CCOc1cccnc1Oc1cncc(-c2ncc(C(=O)NC3CCCOC3)cn2)c1 (racemic) | 11.5 nM | 23 ×10⁻⁶ cm/s | 11 µL/min/1e6 cells | 2.2 | 
10 | CCOc1cccnc1Oc1cncc(-c2ncc(C(=O)NC3CCS(=O)(=O)C3)cn2)c1 (racemic) |  | 5 ×10⁻⁶ cm/s | 5 µL/min/1e6 cells | 1.6 | 
11 | CCOc1cccnc1Oc1cncc(-c2ncc(C(=O)NC3CC(=O)N(C)C3)cn2)c1 (racemic) | 501 nM | 1 ×10⁻⁶ cm/s | < 3 µL/min/1e6 cells | 1.7 | 
12 | CCOc1ccccc1O[C@@H]1CCCN(c2ncc(C(=O)NC(C)(C)CO)cn2)C1 |  | 19 ×10⁻⁶ cm/s |  | 2.8 | microsomal CLint [8]: 121 µL/min/mg
13 | CCOc1cccnc1Oc1cncc(-c2ncc(C(=O)NC3(CO)CCOC3)cn2)c1 (stereo in doubt; 5) |  |  |  |  | Papp ([2]; mdck-ii): 3 10^-6 cm/s; CLH ([3]; hepatocytes, 4 h, 1 µM): < 4 µL/min

Reference: ChEMBL document CHEMBL5096227, “Discovery of Ervogastat (PF-06865571): A Potent and Selective Inhibitor of Diacylglycerol Acyltransferase 2 for the Treatment of Non-alcoholic Steatohepatitis” (J Med Chem, 2022)
